According to ChEMBL document CHEMBL5325488, “Discovery of SMD-3040 as a Potent and Selective SMARCA2 PROTAC Degrader with Strong in vivo Antitumor Activity” (J Med Chem, 2023):
The source made the active and inactive calls. The calls are words filed in the database; no cut-off is given here.

Columns and labels:
NCI-H647 = experiment: Antiproliferative activity against human NCI-H647 cells expressing wild-type SMARCA2 assessed as cell growth inhibition measured after 7 days by WST-8 assay; format: functional; settings: NCI-H647, 168 h, time 7 day
[1] = Antiproliferative activity against SMARCA4-deficient human NCI-H1568 cells assessed as cell growth inhibition by measuring maximal efficacy measured after 7 days by WST-8 assay relative to control; format: functional; settings: time 7 day
[2] = molecular target: T1, von Hippel-Lindau disease tumor suppressor/SWI/SNF-related matrix-associated actin-dependent regulator of chromatin subfamily A member 4 (Homo sapiens, UniProt P51532+P40337); experiment: In vivo PROTAC activity at VHL/SMARCA4 in SCID mouse xenografted with human MV4-11 cells assessed as remaining activity in tumor at 50 mg/kg, iv administered as single dose measured after 6 hrs by Western blotting analysis (reference value: 100 +/- 15 % ); format: ADME, organism-based
Target sequence in this assay (P51532 whole entry): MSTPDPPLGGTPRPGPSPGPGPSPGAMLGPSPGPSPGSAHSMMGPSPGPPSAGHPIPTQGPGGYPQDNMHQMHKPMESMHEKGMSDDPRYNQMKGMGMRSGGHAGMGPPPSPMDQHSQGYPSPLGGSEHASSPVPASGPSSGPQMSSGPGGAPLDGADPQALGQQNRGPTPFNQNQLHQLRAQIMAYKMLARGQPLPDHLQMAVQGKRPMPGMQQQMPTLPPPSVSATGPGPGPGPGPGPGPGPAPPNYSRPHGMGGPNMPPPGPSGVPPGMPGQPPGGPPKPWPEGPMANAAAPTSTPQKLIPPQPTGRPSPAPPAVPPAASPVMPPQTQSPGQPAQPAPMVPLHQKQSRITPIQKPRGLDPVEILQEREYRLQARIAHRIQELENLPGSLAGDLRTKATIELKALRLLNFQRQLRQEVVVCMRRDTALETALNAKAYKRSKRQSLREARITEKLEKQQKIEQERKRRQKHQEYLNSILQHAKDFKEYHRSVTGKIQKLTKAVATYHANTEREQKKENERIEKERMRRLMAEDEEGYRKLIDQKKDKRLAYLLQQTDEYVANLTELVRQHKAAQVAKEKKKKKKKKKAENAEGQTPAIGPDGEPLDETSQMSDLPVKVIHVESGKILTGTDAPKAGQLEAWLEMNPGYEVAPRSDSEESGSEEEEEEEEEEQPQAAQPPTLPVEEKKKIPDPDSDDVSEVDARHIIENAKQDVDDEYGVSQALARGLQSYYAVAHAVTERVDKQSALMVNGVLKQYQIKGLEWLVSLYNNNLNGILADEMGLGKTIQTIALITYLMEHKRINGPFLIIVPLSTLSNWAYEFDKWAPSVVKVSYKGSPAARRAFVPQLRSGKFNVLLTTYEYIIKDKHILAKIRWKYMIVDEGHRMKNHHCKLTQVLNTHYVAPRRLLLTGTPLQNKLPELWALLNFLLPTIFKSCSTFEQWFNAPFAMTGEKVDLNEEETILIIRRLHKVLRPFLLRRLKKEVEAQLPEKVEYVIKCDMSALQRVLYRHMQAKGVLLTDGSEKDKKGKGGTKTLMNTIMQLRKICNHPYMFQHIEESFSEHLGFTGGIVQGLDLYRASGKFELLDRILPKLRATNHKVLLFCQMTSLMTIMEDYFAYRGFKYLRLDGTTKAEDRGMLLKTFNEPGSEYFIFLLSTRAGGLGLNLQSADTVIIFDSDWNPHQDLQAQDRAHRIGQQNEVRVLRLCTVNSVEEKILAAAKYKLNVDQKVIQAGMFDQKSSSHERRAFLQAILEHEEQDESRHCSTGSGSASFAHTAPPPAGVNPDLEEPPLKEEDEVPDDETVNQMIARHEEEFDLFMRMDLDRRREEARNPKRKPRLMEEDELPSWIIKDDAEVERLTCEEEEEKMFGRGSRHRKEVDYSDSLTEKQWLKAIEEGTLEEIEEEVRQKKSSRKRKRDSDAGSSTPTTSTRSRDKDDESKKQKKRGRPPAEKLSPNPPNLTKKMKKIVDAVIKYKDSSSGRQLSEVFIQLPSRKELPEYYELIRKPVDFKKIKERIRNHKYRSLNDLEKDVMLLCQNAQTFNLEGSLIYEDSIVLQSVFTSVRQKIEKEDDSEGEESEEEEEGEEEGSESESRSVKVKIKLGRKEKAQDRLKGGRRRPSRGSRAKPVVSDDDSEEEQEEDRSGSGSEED
Target sequence in this assay (P40337 whole entry): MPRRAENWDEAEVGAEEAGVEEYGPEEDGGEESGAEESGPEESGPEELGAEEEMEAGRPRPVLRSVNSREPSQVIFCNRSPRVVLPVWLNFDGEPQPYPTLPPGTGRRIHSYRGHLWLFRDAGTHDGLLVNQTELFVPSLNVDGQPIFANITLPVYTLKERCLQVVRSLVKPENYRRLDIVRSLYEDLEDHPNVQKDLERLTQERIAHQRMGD

[3] = molecular target: T2, von Hippel-Lindau disease tumor suppressor/SWI/SNF-related matrix-associated actin-dependent regulator of chromatin subfamily A member 2 (Homo sapiens, UniProt P51531+P40337); experiment: PROTAC activity at VHL/wild-type SMARCA2 in human NCI-H838 cells assessed as induction of SMARCA2 degradation at 0.001 to 1000 nM incubated for 24 hrs by Western blotting analysis relative to control; format: cell-based; settings: dose 0.001-1000 nM
Target sequence in this assay (P40337 whole entry, looked up, the tested form may be a part): as the sequence (P40337 whole entry) above
Target sequence in this assay (P51531 whole entry, looked up, the tested form may be a part): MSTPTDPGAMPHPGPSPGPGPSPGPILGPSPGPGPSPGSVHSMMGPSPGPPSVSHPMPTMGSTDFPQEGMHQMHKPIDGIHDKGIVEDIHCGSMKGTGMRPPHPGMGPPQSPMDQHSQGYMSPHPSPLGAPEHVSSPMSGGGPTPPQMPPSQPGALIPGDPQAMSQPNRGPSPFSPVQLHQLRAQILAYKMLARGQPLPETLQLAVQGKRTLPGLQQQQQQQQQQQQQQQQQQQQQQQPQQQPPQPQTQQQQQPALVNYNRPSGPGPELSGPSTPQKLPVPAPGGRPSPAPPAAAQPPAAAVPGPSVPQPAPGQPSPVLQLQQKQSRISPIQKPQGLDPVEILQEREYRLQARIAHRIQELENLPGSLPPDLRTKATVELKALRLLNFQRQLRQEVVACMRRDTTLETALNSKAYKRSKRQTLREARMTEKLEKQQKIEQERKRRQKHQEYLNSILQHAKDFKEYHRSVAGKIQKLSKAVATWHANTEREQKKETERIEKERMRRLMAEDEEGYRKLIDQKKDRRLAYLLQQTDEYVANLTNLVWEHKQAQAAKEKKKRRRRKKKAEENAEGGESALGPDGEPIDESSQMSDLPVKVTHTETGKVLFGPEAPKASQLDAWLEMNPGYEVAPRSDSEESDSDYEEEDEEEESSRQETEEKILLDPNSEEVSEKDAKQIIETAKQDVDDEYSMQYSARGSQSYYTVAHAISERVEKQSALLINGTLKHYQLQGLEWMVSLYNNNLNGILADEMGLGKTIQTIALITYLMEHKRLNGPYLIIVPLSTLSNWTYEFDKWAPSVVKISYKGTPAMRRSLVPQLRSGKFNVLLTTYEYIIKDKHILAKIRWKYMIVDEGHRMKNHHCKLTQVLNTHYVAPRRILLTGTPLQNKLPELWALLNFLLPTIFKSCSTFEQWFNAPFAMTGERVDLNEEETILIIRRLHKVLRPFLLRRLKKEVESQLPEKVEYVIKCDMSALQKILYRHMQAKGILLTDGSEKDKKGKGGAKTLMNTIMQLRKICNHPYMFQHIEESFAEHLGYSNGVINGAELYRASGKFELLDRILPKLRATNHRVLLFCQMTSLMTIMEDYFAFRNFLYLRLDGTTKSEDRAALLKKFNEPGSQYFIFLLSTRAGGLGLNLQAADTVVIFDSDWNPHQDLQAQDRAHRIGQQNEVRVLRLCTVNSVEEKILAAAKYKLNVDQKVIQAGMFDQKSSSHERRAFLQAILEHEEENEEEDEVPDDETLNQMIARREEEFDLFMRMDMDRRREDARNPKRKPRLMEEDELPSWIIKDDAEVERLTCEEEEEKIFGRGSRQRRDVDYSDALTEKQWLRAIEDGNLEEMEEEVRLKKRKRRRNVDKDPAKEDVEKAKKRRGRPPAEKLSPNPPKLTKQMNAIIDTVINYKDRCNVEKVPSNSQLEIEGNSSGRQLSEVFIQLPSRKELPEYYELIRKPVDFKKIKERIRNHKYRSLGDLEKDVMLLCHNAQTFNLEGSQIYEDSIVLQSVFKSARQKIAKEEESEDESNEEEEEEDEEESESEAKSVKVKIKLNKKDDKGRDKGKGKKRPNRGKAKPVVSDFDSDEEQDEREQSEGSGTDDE

[4] = molecular target: T1, von Hippel-Lindau disease tumor suppressor/SWI/SNF-related matrix-associated actin-dependent regulator of chromatin subfamily A member 4; experiment: PROTAC activity at VHL/C-terminal HiBiT fused SMARCA4 in human HeLa cells assessed as induction of SMARCA4 degradation by measuring maximal efficacy at 0.001 to 10 uM incubated for 3 hrs by Nano-Glo HiBiT analysis relative to control; format: cell-based; settings: dose 0.001-10 µM
[5] = molecular target: T2, von Hippel-Lindau disease tumor suppressor/SWI/SNF-related matrix-associated actin-dependent regulator of chromatin subfamily A member 2; experiment: PROTAC activity at VHL/C-terminal HiBiT fused SMARCA2 in human HeLa cells assessed as induction of SMARCA2 degradation incubated for 48 hrs by Nano-Glo HiBiT analysis; format: cell-based
[6] = molecular target: T2, von Hippel-Lindau disease tumor suppressor/SWI/SNF-related matrix-associated actin-dependent regulator of chromatin subfamily A member 2; experiment: In vivo PROTAC activity at VHL/SMARCA2 in SCID mouse xenografted with human NCI-H838 cells assessed as remaining activity in tumor at 50 mg/kg, iv administered as single dose measured after 48 hrs by Western blotting analysis (reference value: 100 +/- 7% ); format: functional, organism-based
Target sequence in this assay (P40337 whole entry, looked up, the tested form may be a part): as the sequence (P40337 whole entry) above
Target sequence in this assay (P51531 whole entry, looked up, the tested form may be a part): as the sequence (P51531 whole entry, looked up, the tested form may be a part) above

[7] = molecular target: T1, von Hippel-Lindau disease tumor suppressor/SWI/SNF-related matrix-associated actin-dependent regulator of chromatin subfamily A member 4; experiment: PROTAC activity at VHL/C-terminal HiBiT fused SMARCA4 in human HeLa cells assessed as induction of SMARCA4 degradation incubated for 48 hrs by Nano-Glo HiBiT analysis; format: cell-based
Target sequence in this assay (P51532 whole entry): as the sequence (P51532 whole entry) above
Target sequence in this assay (P40337 whole entry): as the sequence (P40337 whole entry) above

[8] = molecular target: T2, von Hippel-Lindau disease tumor suppressor/SWI/SNF-related matrix-associated actin-dependent regulator of chromatin subfamily A member 2; experiment: In vivo PROTAC activity at VHL/SMARCA2 in SCID mouse xenografted with human NCI-H838 cells assessed as reduction of SMARCA2 level in tumor at 50 mg/kg, iv administered as single dose measured after 24 hrs by Western blotting analysis; format: functional, organism-based; design: scale not given: the % may be the effect or the level left
Target sequence in this assay (P40337 whole entry, looked up, the tested form may be a part): as the sequence (P40337 whole entry) above
Target sequence in this assay (P51531 whole entry, looked up, the tested form may be a part): as the sequence (P51531 whole entry, looked up, the tested form may be a part) above

A549 = experiment: Antiproliferative activity against SMARCA4-deficient human A549 cells assessed as cell growth inhibition measured after 7 days by WST-8 assay; format: functional; settings: A549, 168 h, time 7 day
NCI-H1793 [9] = experiment: Antiproliferative activity against SMARCA4-deficient human NCI-H1793 cells assessed as cell growth inhibition by measuring maximal efficacy measured after 7 days by WST-8 assay relative to control; format: functional; settings: time 7 day
[10] = molecular target: T2, von Hippel-Lindau disease tumor suppressor/SWI/SNF-related matrix-associated actin-dependent regulator of chromatin subfamily A member 2; experiment: PROTAC activity at VHL/C-terminal HiBiT fused SMARCA2 in human HeLa cells assessed as induction of SMARCA2 degradation by measuring maximal efficacy at 0.0001 to 1 uM incubated for 48 hrs by Nano-Glo HiBiT analysis relative to control; format: cell-based; settings: dose 0.0001-1 µM
Target sequence in this assay (P40337 whole entry, looked up, the tested form may be a part): as the sequence (P40337 whole entry) above
Target sequence in this assay (P51531 whole entry, looked up, the tested form may be a part): as the sequence (P51531 whole entry, looked up, the tested form may be a part) above

[11] = molecular target: T1, von Hippel-Lindau disease tumor suppressor/SWI/SNF-related matrix-associated actin-dependent regulator of chromatin subfamily A member 4; experiment: In vivo PROTAC activity at VHL/SMARCA4 in SCID mouse xenografted with human MV4-11 cells assessed as remaining activity in tumor at 50 mg/kg, iv administered as single dose measured after 48 hrs by Western blotting analysis (reference value: 100 +/- 15 % ); format: ADME, organism-based
Target sequence in this assay (P51532 whole entry): as the sequence (P51532 whole entry) above
Target sequence in this assay (P40337 whole entry): as the sequence (P40337 whole entry) above

[12] = Drug concentration in SCID mouse plasma xenografted with human MV4-11 cells at 50 mg/kg, iv measured after 72 hrs by LC-MS/MS method; format: ADME, organism-based
NCI-H1299 = experiment: Antiproliferative activity against SMARCA4-deficient human NCI-H1299 cells assessed as cell growth inhibition by measuring maximal efficacy measured after 7 days by WST-8 assay relative to control; format: functional; settings: time 7 day
[13] = molecular target: T1, von Hippel-Lindau disease tumor suppressor/SWI/SNF-related matrix-associated actin-dependent regulator of chromatin subfamily A member 4; experiment: In vivo PROTAC activity at VHL/SMARCA4 in SCID mouse xenografted with human MV4-11 cells assessed as remaining activity in tumor at 50 mg/kg, iv administered as single dose measured after 24 hrs by Western blotting analysis (reference value: 100 +/- 15 % ); format: ADME, organism-based
Target sequence in this assay (P51532 whole entry): as the sequence (P51532 whole entry) above
Target sequence in this assay (P40337 whole entry): as the sequence (P40337 whole entry) above

[14] = Drug concentration in SCID mouse tumor xenografted with human MV4-11 cells at 50 mg/kg, iv measured after 72 hrs by LC-MS/MS method; format: ADME, organism-based, Neoplasm; settings: read-out: Ct
[15] = Drug concentration in SCID mouse tumor xenografted with human MV4-11 cells at 50 mg/kg, iv measured after 96 hrs by LC-MS/MS method; format: ADME, organism-based, Neoplasm; settings: read-out: Ct
NCI-H1693 = experiment: Antiproliferative activity against SMARCA4-deficient human NCI-H1693 cells assessed as cell growth inhibition measured after 7 days by WST-8 assay; format: functional; settings: NCI-H1693, 168 h, time 7 day
[16] = molecular target: T2, von Hippel-Lindau disease tumor suppressor/SWI/SNF-related matrix-associated actin-dependent regulator of chromatin subfamily A member 2; experiment: In vivo PROTAC activity at VHL/SMARCA2 in SCID mouse xenografted with human MV4-11 cells assessed as remaining activity in tumor at 50 mg/kg, iv administered as single dose measured after 2 hrs by Western blotting analysis (reference value: 100 +/- 15 % ); format: ADME, organism-based
[17] = molecular target: T1, von Hippel-Lindau disease tumor suppressor/SWI/SNF-related matrix-associated actin-dependent regulator of chromatin subfamily A member 4; experiment: PROTAC activity at VHL/wild-type SMARCA4 in human SK-MEL-28 cells assessed as induction of SMARCA4 degradation at 0.001 to 1000 nM incubated for 24 hrs by Western blotting analysis relative to control; format: cell-based; settings: dose 0.001-1000 nM
SK-MEL-28 = experiment: Antiproliferative activity against human SK-MEL-28 cells expressing wild-type SMARCA2 assessed as cell growth inhibition by measuring maximal efficacy measured after 7 days by WST-8 assay relative to control; format: functional; settings: time 7 day
NCI-H1793 [18] = experiment: Antiproliferative activity against SMARCA4-deficient human NCI-H1793 cells assessed as cell growth inhibition measured after 7 days by WST-8 assay; format: functional; settings: NCI-H1793, 168 h, time 7 day
[19] = molecular target: T2, von Hippel-Lindau disease tumor suppressor/SWI/SNF-related matrix-associated actin-dependent regulator of chromatin subfamily A member 2; experiment: In vivo PROTAC activity at VHL/SMARCA2 in SCID mouse xenografted with human NCI-H838 cells assessed as remaining activity in tumor at 50 mg/kg, iv administered as single dose measured after 96 hrs by Western blotting analysis (reference value: 100 +/- 7% ); format: functional, organism-based
Target sequence in this assay (P40337 whole entry, looked up, the tested form may be a part): as the sequence (P40337 whole entry) above
Target sequence in this assay (P51531 whole entry, looked up, the tested form may be a part): as the sequence (P51531 whole entry, looked up, the tested form may be a part) above

[20] = Drug concentration in SCID mouse plasma xenografted with human MV4-11 cells at 50 mg/kg, iv measured after 2 hrs by LC-MS/MS method; format: ADME, organism-based
[21] = molecular target: T2, von Hippel-Lindau disease tumor suppressor/SWI/SNF-related matrix-associated actin-dependent regulator of chromatin subfamily A member 2; experiment: PROTAC activity at VHL/C-terminal HiBiT fused SMARCA2 in human HeLa cells assessed as induction of SMARCA2 degradation pre-treated with PR171 for 2 hrs followed by compound treatment for 24 hrs by Nano-Glo HiBiT analysis; format: cell-based
Target sequence in this assay (P40337 whole entry, looked up, the tested form may be a part): as the sequence (P40337 whole entry) above
Target sequence in this assay (P51531 whole entry, looked up, the tested form may be a part): as the sequence (P51531 whole entry, looked up, the tested form may be a part) above

GI50 (NCI-H647): 3100 nM | Activity [2]: 83% | Emax [3]: 90% | Emax [4]: 46% | DC50 [5]: 11 nM | Activity [6]: 25% | DC50 [7]: 174 nM | Activity [8]: 91% | GI50 (A549): 42 nM | Emax [10]: 94% | Activity [11]: 87% | concentration at 72 h [12]: 6.7 ng/mL | Activity [13]: 71% | concentration at 72 h [14]: 370 ng/g | concentration at 96 h [15]: 560 ng/g | GI50 (NCI-H1693): 15 nM | Activity [16]: 22% | Emax [17]: 24% | GI50 (NCI-H1793 [18]): 21 nM | Activity [19]: 33% | concentration at 2 h [20]: 2730 ng/mL | Activity [21]: inactive
SMILES: Cc1ncsc1-c1ccc([C@H](C)NC(=O)[C@@H]2C[C@@H](O)CN2C(=O)[C@@H](NC(=O)[C@H]2CC[C@H](CN3CC4(CCC(n5cc(-c6cc(-c7ccccc7O)nnc6N)cn5)CC4)C3)CC2)C(C)(C)C)cc1
Imax [1]: 79% | Imax (NCI-H1793 [9]): 69% | Imax (NCI-H1299): 41% | Imax (SK-MEL-28): 15%
